# Several values for one entry are separate records, joined by “and”; a condition that tells them apart may be missing. Equal values may be shown once.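 Each compound was tested at five concentrations against cells in 96-well plates for 48 hours. GI50: concentration for 50% inhibition of growth. TGI: concentration producing complete growth inhibition.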
# Tests used:
# Assay in all cases: growth of human tumour cells (NCI), 48 h
# SF-295 CNS = system: SF-295 CNS
# LOX IMVI melanoma = system: LOX IMVI melanoma
# SK-MEL-28 melanoma = system: SK-MEL-28 melanoma
# OVCAR-4 ovarian = system: OVCAR-4 ovarian
# SR leukemia = system: SR leukemia
# CCRF-CEM leukemia = system: CCRF-CEM leukemia
# IGROV1 ovarian = system: IGROV1 ovarian
# A549 NSCLC = system: A549 NSCLC
# PC-3 prostate = system: PC-3 prostate
# HCT-15 colon = system: HCT-15 colon
# NCI-H460 lung = system: NCI-H460 lung
# RPMI-8226 leukemia = system: RPMI-8226 leukemia
# T-47D breast = system: T-47D breast
Structure (SMILES),TGI (SF-295 CNS) [µM],TGI (LOX IMVI melanoma),TGI (SK-MEL-28 melanoma),TGI (OVCAR-4 ovarian) [µM],TGI (SR leukemia) [µM],TGI (CCRF-CEM leukemia),TGI (IGROV1 ovarian),TGI (A549 NSCLC),TGI (PC-3 prostate) [µM],TGI (HCT-15 colon) [µM],TGI (NCI-H460 lung) [µM],TGI (RPMI-8226 leukemia) [µM],TGI (T-47D breast) [µM],GI50 (SF-295 CNS) [µM],GI50 (LOX IMVI melanoma),GI50 (SK-MEL-28 melanoma) [µM],GI50 (OVCAR-4 ovarian) [µM],GI50 (T-47D breast) [µM],GI50 (CCRF-CEM leukemia),GI50 (NCI-H460 lung) [µM]
Nc1ccc2ccc(N3CCNCC3)nc2n1,> 100,> 100 µM,> 100 µM,> 100,> 100,> 100 µM,> 100 µM,> 100 µM,> 100,> 100,> 100,> 100,,,,,,,,
OC12c3ccccc3C1CCCCCCCCCC21OCCO1 (centres undefined),> 100,> 100 µM,> 100 µM,> 100,,> 100 µM,> 100 µM,> 100 µM,,> 100,> 100,> 100,,,,,,,,
Cc1ccc(S(=O)(=O)C2=c3nc4ccccc4cc3=C3C(=O)c4ccccc4C(=O)C32)cc1 (centres undefined),,> 100 µM,> 100 µM,> 100,> 100,> 100 µM,> 100 µM,> 100 µM,,> 100,> 100,> 100,,,,,,,,
O=C(c1cccs1)N1CCCN(C(=O)c2cccs2)C1=S,> 100,> 100 µM,> 100 µM,,,> 100 µM,> 100 µM,,> 100,> 100,,> 100,> 100,,,,,,,
C/C=C(\C)C(=O)O[C@@H]1CC(C)(C)CC2C3=CCC4[C@]56CC[C@](O)(OC5)C(C)(C)C6CC[C@@]4(C)C3(C)CC[C@]21C(=O)O (some centres undefined),> 100,> 100 µM,> 100 µM,> 100,,> 100 µM,> 100 µM,> 100 µM,> 100,> 100,> 100,> 100,> 100,,,,,,,
COc1cc(C2C3=C(CCCC3=O)N(c3ccc(C)cc3)C3=C2C(=O)CCC3)c([N+](=O)[O-])cc1OC,,> 100 µM,> 100 µM,> 100,> 100,> 100 µM,> 100 µM,> 100 µM,> 100,> 100,> 100,> 100,,,,,,,,
COc1ccc2oc(-c3ccc(OC)c(OC)c3OC)cc(=O)c2c1,> 100,> 100 µM,> 100 µM,> 100,,> 100 µM,> 100 µM,> 100 µM,,,,43,,,,,,,,
c1ccc(SC23C4C5C6C4C2C6C53)nc1 (centres undefined),> 100,> 100 µM,> 100 µM,> 100,> 35,> 100 µM,> 100 µM,> 100 µM,,> 100,> 100,> 54,,,,,,,,
CCn1c2c(c3ccccc31)[C@@H](c1ccc(Cl)cc1)CC1C(=O)N(c3ccccc3)C(=O)C21 (some centres undefined),> 100,> 100 µM,> 100 µM,> 100,98.8,> 100 µM,> 100 µM,> 100 µM,,> 100,> 100,> 100,,,,,,,,
COc1cc(Cc2cnc(N)nc2N)cc(OC)c1OCCCNc1ccc([N+](=O)[O-])cc1,,,27.1 µM,33.6,24.3,35.2 µM,28.3 µM,35.2 µM,22.3,37.8,26,,25.3,,,,,,,
CN1CCc2c(sc3ncn(Nc4ccc(Cl)cc4)c(=N)c23)C1,> 100,> 100 µM,> 100 µM,> 100,,> 100 µM,> 100 µM,> 100 µM,> 100,> 100,> 100,> 100,> 100,,,,,,,
O=[N+]([O-])/C=C(\CS(=O)(=O)c1ccccc1)c1ccc2c(c1)OCO2,> 100,> 100 µM,> 100 µM,,> 100,> 100 µM,> 100 µM,> 100 µM,,> 100,,> 100,> 100,,,,,,,
C=CCOC(=O)N1c2ccc(O)cc2[C@@]23O[C@@]24[C@@H]1C#C/C=C\C#C[C@]3(O)C(OC)(OC)C[C@@H]4C,> 100,,> 100 µM,47.2,62.2,76.8 µM,80.8 µM,> 100 µM,77.6,> 100,83.3,91.5,> 100,,,,,,,
COc1ccc(-c2ncn(C[Si](C)(C)C)c2-c2ccc(OC)cc2)cc1,18.3,21 µM,14.8 µM,25.6,66.2,,23.1 µM,27.2 µM,16.9,18.3,15.3,4.57,,,,,,,,
COC(=O)CCNc1c2ccccc2nc2cccc([N+](=O)[O-])c12,,0.0172 µM and 0.053 µM,0.0112 µM and 0.0918 µM,0.0251,,0.18 µM and 0.0689 µM,0.0261 µM and 0.0901 µM,0.132 µM and 0.726 µM,0.126,,0.234,0.0236,0.466,0.00261,0.00367 µM and 0.0126 µM,0.0029,0.00454,0.0283,0.00682 µM and 0.0157 µM,0.0138
CCN(CC)CCn1c(=O)c2c(C)c3oc4ccccc4oc3c(C)c2c1=O,> 100,> 100 µM,,> 100,,> 100 µM,> 100 µM,> 100 µM,> 100,> 100,> 100,> 100,,,,,,,,
Cc1ccc(-c2cc[n+]3c(n2)oc2ccccc23)cc1,> 100,> 100 µM,57.8 µM,48.8,47,36.3 µM,> 100 µM,> 100 µM,,> 100,> 100,54.4,> 100,,,,,,,
CCCCCCCCCCCCCCCCCCNC(=S)/N=C/c1c(O)c2ccccc2[nH]c1=O,47.9,32.2 µM,40.4 µM,41,,,21.2 µM,47.6 µM,,29.4,32.6,,90.5,,,,,,,
Cc1cc2c(cc1C)C(=O)C1(C2)Cc2cc3c(cc2C1=O)CCC3 (centres undefined),> 100,,> 100 µM,> 100,> 100,> 100 µM,> 100 µM,> 100 µM,> 100,> 100,> 100,> 100,> 100,,,,,,,
